# Measurements from article PMC10425983 (ACS Infectious Diseases, 2023).
# System: L. infantum (MHOM/MA(BE)/67/ITMAP263) amastigotes
# Test: L. infantum intramacrophage amastigote assay
# Type: cell-based, Leishmania infantum
# Settings: Leishmania infantum, 120 h, read-out: L.inf pEC50 (converted)
row,EC50 [µM],Structure (SMILES)
1,50.1,"c1ccc(-c2cn3ccccc3n2)nc1 [Compound 11a, 2-(Pyridin-2-yl)imidazo[1,2-a]pyridine]"
2,31.6,"COc1ccn2c(N)c(-c3ccccn3)nc2c1 [Compound 7b, 7-Methoxy-2-(pyridin-2-yl)imidazo[1,2-a]pyridin-3-amine]"

# Continued, compound first:
row,Structure (SMILES),EC50 [µM]
1,"Fc1ccc(Nc2c(-c3ccccn3)nc3ccncn23)cc1 [Compound 3g, N-(4-Fluorophenyl)-2-(pyridin-2-yl)imidazo[1,2-c]pyrimidin-3-amine]",50.1
2,"Fc1ccc(Nc2c(-c3ccccn3)nc3cccnn23)cc1 [Compound 3d, N-(4-Fluorophenyl)-2-(pyridin-2-yl)imidazo[1,2-b]pyridazin-3-amine]",15.8
3,"Fc1ccc(Nc2c(-c3ccccn3)nc3ncccn23)cc1 [Compound 3m, N-(4-Fluorophenyl)-2-(pyridin-2-yl)imidazo[1,2-a]pyrimidin-3-amine]",50.1
4,"Fc1ccc(Nc2c(-c3ccccn3)nc3cnccn23)cc1 [Compound 3j, N-(4-Fluorophenyl)-2-(pyridin-2-yl)imidazo[1,2-a]pyrazin-3-amine]",> 63.1
5,"Fc1ccc(Nc2c(-c3ccccn3)nc3cc(F)ccn23)cc1 [Compound 3h, 7-Fluoro-N-(4-fluorophenyl)-2-(pyridin-2-yl)imidazo[1,2-a]pyridin-3-amine]",25.1
6,"COc1cccc2nc(-c3ccccn3)c(Nc3ccc(F)cc3)n12 [Compound 3c, N-(4-Fluorophenyl)-5-methoxy-2-(pyridin-2-yl)imidazo[1,2-a]pyridin-3-amine]",7.94
7,"Fc1ccc(Nc2c(-c3ccccn3)nc3ccc(-c4cnoc4)cn23)cc1 [Compound 3q, N-(4-Fluorophenyl)-6-(1,2-oxazol-4-yl)-2-(pyridin-2-yl)imidazo[1,2-a]pyridin-3-amine]",25.1

# Same assay, conditions: ratio CC50 μM (PMM)/EC50 μM (L.inf)
row,Structure (SMILES),SI
1,"Fc1ccc(Nc2c(-c3ccccn3)nc3ccncn23)cc1 [Compound 3g, N-(4-Fluorophenyl)-2-(pyridin-2-yl)imidazo[1,2-c]pyrimidin-3-amine]",1
2,"c1ccc(-c2cn3ccccc3n2)nc1 [Compound 11a, 2-(Pyridin-2-yl)imidazo[1,2-a]pyridine]",1
3,"Fc1ccc(Nc2c(-c3ccccn3)nc3cccnn23)cc1 [Compound 3d, N-(4-Fluorophenyl)-2-(pyridin-2-yl)imidazo[1,2-b]pyridazin-3-amine]",2
4,"Fc1ccc(Nc2c(-c3ccccn3)nc3ncccn23)cc1 [Compound 3m, N-(4-Fluorophenyl)-2-(pyridin-2-yl)imidazo[1,2-a]pyrimidin-3-amine]",1
5,"Fc1ccc(Nc2c(-c3ccccn3)nc3cnccn23)cc1 [Compound 3j, N-(4-Fluorophenyl)-2-(pyridin-2-yl)imidazo[1,2-a]pyrazin-3-amine]",1
6,"COc1ccn2c(N)c(-c3ccccn3)nc2c1 [Compound 7b, 7-Methoxy-2-(pyridin-2-yl)imidazo[1,2-a]pyridin-3-amine]",2
7,"Fc1ccc(Nc2c(-c3ccccn3)nc3cc(F)ccn23)cc1 [Compound 3h, 7-Fluoro-N-(4-fluorophenyl)-2-(pyridin-2-yl)imidazo[1,2-a]pyridin-3-amine]",3
8,"COc1cccc2nc(-c3ccccn3)c(Nc3ccc(F)cc3)n12 [Compound 3c, N-(4-Fluorophenyl)-5-methoxy-2-(pyridin-2-yl)imidazo[1,2-a]pyridin-3-amine]",1
9,"Fc1ccc(Nc2c(-c3ccccn3)nc3ccc(-c4cnoc4)cn23)cc1 [Compound 3q, N-(4-Fluorophenyl)-6-(1,2-oxazol-4-yl)-2-(pyridin-2-yl)imidazo[1,2-a]pyridin-3-amine]",3

# System: not listed separately
# Test: Cytotoxicity toward primary peritoneal mouse macrophages
# Type: cell-based
# Settings: Swiss, mouse, primary peritoneal mouse macrophages (PMM), PMM pCC50, primary mouse macrophages; highest in-test concentration 64 μM
row,Structure (SMILES),CC50 at 5 days [µM]
1,"Fc1ccc(Nc2c(-c3ccccn3)nc3ccncn23)cc1 [Compound 3g, N-(4-Fluorophenyl)-2-(pyridin-2-yl)imidazo[1,2-c]pyrimidin-3-amine]",> 63.1
2,"c1ccc(-c2cn3ccccc3n2)nc1 [Compound 11a, 2-(Pyridin-2-yl)imidazo[1,2-a]pyridine]",> 63.1
3,"Fc1ccc(Nc2c(-c3ccccn3)nc3cccnn23)cc1 [Compound 3d, N-(4-Fluorophenyl)-2-(pyridin-2-yl)imidazo[1,2-b]pyridazin-3-amine]",31.6
4,"Fc1ccc(Nc2c(-c3ccccn3)nc3ncccn23)cc1 [Compound 3m, N-(4-Fluorophenyl)-2-(pyridin-2-yl)imidazo[1,2-a]pyrimidin-3-amine]",> 63.1
5,"Fc1ccc(Nc2c(-c3ccccn3)nc3cnccn23)cc1 [Compound 3j, N-(4-Fluorophenyl)-2-(pyridin-2-yl)imidazo[1,2-a]pyrazin-3-amine]",> 63.1
6,"COc1ccn2c(N)c(-c3ccccn3)nc2c1 [Compound 7b, 7-Methoxy-2-(pyridin-2-yl)imidazo[1,2-a]pyridin-3-amine]",> 63.1
7,"Fc1ccc(Nc2c(-c3ccccn3)nc3cc(F)ccn23)cc1 [Compound 3h, 7-Fluoro-N-(4-fluorophenyl)-2-(pyridin-2-yl)imidazo[1,2-a]pyridin-3-amine]",> 63.1
8,"COc1cccc2nc(-c3ccccn3)c(Nc3ccc(F)cc3)n12 [Compound 3c, N-(4-Fluorophenyl)-5-methoxy-2-(pyridin-2-yl)imidazo[1,2-a]pyridin-3-amine]",7.94
9,"Fc1ccc(Nc2c(-c3ccccn3)nc3ccc(-c4cnoc4)cn23)cc1 [Compound 3q, N-(4-Fluorophenyl)-6-(1,2-oxazol-4-yl)-2-(pyridin-2-yl)imidazo[1,2-a]pyridin-3-amine]",> 63.1

# System: not listed separately
# Test: Thermodynamic aqueous solubility
# Type: physicochemical
# Settings: not given
row,aq. sol. [µM],Structure (SMILES)
1,828,"c1ccc(-c2cn3ccccc3n2)nc1 [Compound 11a, 2-(Pyridin-2-yl)imidazo[1,2-a]pyridine]"
2,290,"COc1ccn2c(N)c(-c3ccccn3)nc2c1 [Compound 7b, 7-Methoxy-2-(pyridin-2-yl)imidazo[1,2-a]pyridin-3-amine]"

# Further lines, the compound ahead of its results:
row,Structure (SMILES),aq. sol. [µM]
1,"Fc1ccc(Nc2c(-c3ccccn3)nc3ccncn23)cc1 [Compound 3g, N-(4-Fluorophenyl)-2-(pyridin-2-yl)imidazo[1,2-c]pyrimidin-3-amine]",64
2,"Fc1ccc(Nc2c(-c3ccccn3)nc3cccnn23)cc1 [Compound 3d, N-(4-Fluorophenyl)-2-(pyridin-2-yl)imidazo[1,2-b]pyridazin-3-amine]",68
3,"Fc1ccc(Nc2c(-c3ccccn3)nc3ncccn23)cc1 [Compound 3m, N-(4-Fluorophenyl)-2-(pyridin-2-yl)imidazo[1,2-a]pyrimidin-3-amine]",180
4,"Fc1ccc(Nc2c(-c3ccccn3)nc3cnccn23)cc1 [Compound 3j, N-(4-Fluorophenyl)-2-(pyridin-2-yl)imidazo[1,2-a]pyrazin-3-amine]",61
5,"Fc1ccc(Nc2c(-c3ccccn3)nc3cc(F)ccn23)cc1 [Compound 3h, 7-Fluoro-N-(4-fluorophenyl)-2-(pyridin-2-yl)imidazo[1,2-a]pyridin-3-amine]",0.1
6,"COc1cccc2nc(-c3ccccn3)c(Nc3ccc(F)cc3)n12 [Compound 3c, N-(4-Fluorophenyl)-5-methoxy-2-(pyridin-2-yl)imidazo[1,2-a]pyridin-3-amine]",62
7,"Fc1ccc(Nc2c(-c3ccccn3)nc3ccc(-c4cnoc4)cn23)cc1 [Compound 3q, N-(4-Fluorophenyl)-6-(1,2-oxazol-4-yl)-2-(pyridin-2-yl)imidazo[1,2-a]pyridin-3-amine]",3

# System: not listed separately
# Test: Human liver microsome intrinsic clearance
# Type: in vitro ADME
# Settings: clearance class in words
row,metabolic stability class in human liver microsomes,Structure (SMILES)
1,moderate (8.6 ≤ moderate ≤47),"Fc1ccc(Nc2c(-c3ccccn3)nc3ccccn23)nc1 [Compound 8, 5-Fluoro-N-[2-(pyridin-2-yl)imidazo[1,2-a]pyridin-3-yl]pyridin-2-amine]"

# Same assay, conditions: human, human liver microsomes, pH 7.4, HLM clint
row,microsomal CLint at 3 µM [µL/min/mg],Structure (SMILES)
1,130,"c1ccc(-c2cn3ccccc3n2)nc1 [Compound 11a, 2-(Pyridin-2-yl)imidazo[1,2-a]pyridine]"
2,120,"COc1ccn2c(N)c(-c3ccccn3)nc2c1 [Compound 7b, 7-Methoxy-2-(pyridin-2-yl)imidazo[1,2-a]pyridin-3-amine]"

# Further lines, the compound ahead of its results:
row,Structure (SMILES),microsomal CLint at 3 µM [µL/min/mg]
1,"Fc1ccc(Nc2c(-c3ccccn3)nc3cccnn23)cc1 [Compound 3d, N-(4-Fluorophenyl)-2-(pyridin-2-yl)imidazo[1,2-b]pyridazin-3-amine]",212
2,"Fc1ccc(Nc2c(-c3ccccn3)nc3ncccn23)cc1 [Compound 3m, N-(4-Fluorophenyl)-2-(pyridin-2-yl)imidazo[1,2-a]pyrimidin-3-amine]",42.4
3,"Fc1ccc(Nc2c(-c3ccccn3)nc3cnccn23)cc1 [Compound 3j, N-(4-Fluorophenyl)-2-(pyridin-2-yl)imidazo[1,2-a]pyrazin-3-amine]",202
4,"Fc1ccc(Nc2c(-c3ccccn3)nc3cc(F)ccn23)cc1 [Compound 3h, 7-Fluoro-N-(4-fluorophenyl)-2-(pyridin-2-yl)imidazo[1,2-a]pyridin-3-amine]",> 300
5,"COc1cccc2nc(-c3ccccn3)c(Nc3ccc(F)cc3)n12 [Compound 3c, N-(4-Fluorophenyl)-5-methoxy-2-(pyridin-2-yl)imidazo[1,2-a]pyridin-3-amine]",28
6,"Fc1ccc(Nc2c(-c3ccccn3)nc3ccc(-c4cnoc4)cn23)cc1 [Compound 3q, N-(4-Fluorophenyl)-6-(1,2-oxazol-4-yl)-2-(pyridin-2-yl)imidazo[1,2-a]pyridin-3-amine]",75

# System: not listed separately
# Test: Rat hepatocyte intrinsic clearance
# Type: in vitro ADME
# Settings: clearance class in words
row,metabolic stability class in rat hepatocytes,Structure (SMILES)
1,moderate (5.1 ≤ moderate ≤27),"Fc1ccc(Nc2c(-c3ccccn3)nc3ccccn23)nc1 [Compound 8, 5-Fluoro-N-[2-(pyridin-2-yl)imidazo[1,2-a]pyridin-3-yl]pyridin-2-amine]"

# Same assay, conditions: rat, rat hepatocytes
row,hepatocyte CLint [µL/min/1e6 cells],Structure (SMILES)
1,140,"c1ccc(-c2cn3ccccc3n2)nc1 [Compound 11a, 2-(Pyridin-2-yl)imidazo[1,2-a]pyridine]"
2,7.1,"COc1ccn2c(N)c(-c3ccccn3)nc2c1 [Compound 7b, 7-Methoxy-2-(pyridin-2-yl)imidazo[1,2-a]pyridin-3-amine]"

# Continued, compound first:
row,Structure (SMILES),hepatocyte CLint [µL/min/1e6 cells]
1,"Fc1ccc(Nc2c(-c3ccccn3)nc3cccnn23)cc1 [Compound 3d, N-(4-Fluorophenyl)-2-(pyridin-2-yl)imidazo[1,2-b]pyridazin-3-amine]",> 300
2,"Fc1ccc(Nc2c(-c3ccccn3)nc3ncccn23)cc1 [Compound 3m, N-(4-Fluorophenyl)-2-(pyridin-2-yl)imidazo[1,2-a]pyrimidin-3-amine]",64.8
3,"Fc1ccc(Nc2c(-c3ccccn3)nc3cnccn23)cc1 [Compound 3j, N-(4-Fluorophenyl)-2-(pyridin-2-yl)imidazo[1,2-a]pyrazin-3-amine]",64.2
4,"Fc1ccc(Nc2c(-c3ccccn3)nc3cc(F)ccn23)cc1 [Compound 3h, 7-Fluoro-N-(4-fluorophenyl)-2-(pyridin-2-yl)imidazo[1,2-a]pyridin-3-amine]",146
5,"COc1cccc2nc(-c3ccccn3)c(Nc3ccc(F)cc3)n12 [Compound 3c, N-(4-Fluorophenyl)-5-methoxy-2-(pyridin-2-yl)imidazo[1,2-a]pyridin-3-amine]",30
6,"Fc1ccc(Nc2c(-c3ccccn3)nc3ccc(-c4cnoc4)cn23)cc1 [Compound 3q, N-(4-Fluorophenyl)-6-(1,2-oxazol-4-yl)-2-(pyridin-2-yl)imidazo[1,2-a]pyridin-3-amine]",128

# System: not listed separately
# Test: Free plasma concentration
# Type: in vitro ADME
# Settings: free fraction in plasma
row,free plasma concentration [%],Structure (SMILES)
1,2,"COc1ccc2nc(-c3ccccn3)c(N(C)c3ccc(F)cc3)n2c1 [Compound 4n, N-(4-Fluorophenyl)-6-methoxy-N-methyl-2-(pyridin-2-yl)imidazo[1,2-a]pyridin-3-amine]"
